Measurements: patent publication US5250735A, “2-(N-substituted-aminoalkyl)-5-(E)-alkylidene cyclopentanones, 2-(N-substituted-aminoalkyl)-5-(E)-arylalkylidene cyclopentanones, and derivatives thereof” (priority 1992, dated 1993)
Counter-ions that a name gives are not always drawn.

Legend:
[1] = system: 60 human tumor cell lines; conditions: 5-fluorouracil comparison value; cited from earlier work
[2] = literature; cited from earlier work
[3] = literature; cited from earlier work; remark: listed apart in the source
[4] = system: acetic acid induced mouse writhes; assay: Acetic acid induced mouse writhes (analgesic activity); assay type: in vivo, mice; conditions: oral
Description: Analgesic activity was evaluated by a procedure similar to that described by Koster et al. [R. Koster, et al., Fed. Proc., 18, 412 (1959)]. About one hour after oral administration of test compounds to mice, 0.1 ml/10 g body weight of acetic acid was intraperitoneally injected. About five minutes later, the number of writhes of each mouse was counted for a period of about 20 minutes. The analgesic effect was manifested as a reduction in the number of writhes. "Compound numbers" refer to compounds whose synthesis is illustrated in the corresponding Example number. The P values are the results of T-tests, which are well known to those skilled in the art.

[5] = system: Ehrlich ascites carcinoma; assay: Antitumor effect on Ehrlich ascites carcinoma, survival; assay type: in vivo, ICR mice; conditions: 20 mg/kg/day intraperitoneal, 9 days
Description: Antitumor effect was measured on Ehrlich ascites carcinoma. Ehrlich ascites carcinoma cells were intraperitoneally administered to ICR mice. After 24 hours, 20 mg/kg/day of the compound whose synthesis is illustrated in Example 1 and Example 2 were each administered to the mice by intraperitoneal route for 9 days. The periods of survival of these animals were examined.

[6] = system: 60 human tumor cell lines; assay: National Cancer Institute in vitro tumor cell screen; assay type: cell-based; parameters: key to Differential Cellular Sensitivity GI50, tumor cell line subpanels / Differential Cellular Sensitivity LC50, tumor cell line subpanels / Differential Cellular Sensitivity TGI, tumor cell line subpanels: LEU: Leukemia/lymphoma; LNS: Nonsmall cell lung; COL: Colon; MEL: Melanoma; OVA: Ovary; REN: Kidney; SCL: Small cell lung; conditions: for GI50 / IC100 / LC50: Homo sapiens, molar concentration, mean of all cell lines; for GI50: 50% inhibition of cell proliferation, read-out: Mean response of all cell lines (Log) GI50 (converted); for IC100: 100% inhibition of cell proliferation, read-out: Mean response of all cell lines (Log) TGI (converted); for Differential Cellular Sensitivity GI50, tumor cell line subpanels: subpanels for GI50; for Differential Cellular Sensitivity LC50, tumor cell line subpanels: subpanels for LC50; for Differential Cellular Sensitivity TGI, tumor cell line subpanels: subpanels for TGI; for LC50: 50% of cell population killed, read-out: Mean response of all cell lines (Log) LC50 (converted)
Description: In the assay, a candidate compound was tested for its ability to inhibit tumor cell growth. A dose response curve of percent cell growth versus compound concentration over a concentration range of 10^-9 to 10^-4 molar of each test compound was established to determine GI50, TGI and LC50. GI50 and TGI denote that cell proliferation was inhibited by 50% and 100% respectively. LC50 denotes that 50% of cell population was killed. The selectivity of a compound towards a certain type of tumor cell line was evaluated from mean graphs which compared the relative drug concentrations required to produce the same level of response (e.g. GI50) in each cell line. A differential cellular sensitivity index was calculated by taking the difference between the logarithm of GI50 (or TGI, LC50) value for a cell line versus the arithmetic mean of the logarithm of GI50 (or TGI, LC 50) value for all cell line responses measured for a given compound.

[7] = system: carrageenin-induced rat paw edema; assay: Carrageenin-induced rat paw edema (anti-inflammatory activity); assay type: in vivo, Wistar rats; conditions: paw volume at about 3 hours
Description: Anti-inflammatory activity was evaluated by examining the inhibitory activity of candidate compounds on carrageenin-induced rat paw edema according to a literature procedure [C. A. Winter, et al., Proc. Soc. Exp. Biol. Med. 111, 544 (1962)]. Test compounds were orally administered about 1 hour or subcutaneously injected about 0.5 hours before the injection of 100 microliters of a 1% suspension of carrageenin in saline into the subcutaneous tissues of the right hind paw of Wistar rats. The paw volumes were measured about 3 hours after carrageenin injection. The paw volumes were compared with that of a control group to give the percentage of inflammation inhibition. The results of these tests are shown in Table I. "Compound numbers" refer to compounds whose synthesis is illustrated in the corresponding Example number. The P values are the results of T-tests, which are well known to those skilled in the art.

[8] = 50.0 mg/kg sc, about 0.5 hours before carrageenin
[9] = 25.0 mg/kg sc, about 0.5 hours before carrageenin
[10] = 96.0 mg/kg po, about 1 hour before carrageenin

In the case of O=c1[nH]cc(F)c(=O)[nH]1 [5-fluorouracil], the “mean log LC50” value [1] is listed as -3.5.

For C=C1C(=O)O[C@H]2C[C@@H](C)[C@@H]3C=CC(=O)[C@@]3(C)C[C@H]12 [Aromaticin], the “anti-inflammatory activity (in words)” value [2] is given as “potent” and the “anticancer activity (in words)” value [3] is given as “potent”.

For CC(=O)Oc1ccccc1C(=O)O [Aspirin, reference compound], the “Inhibition of acetic acid induced mouse writhes” value ([4]; 100 mg/kg) was 46.7% and the “Inhibition of acetic acid induced mouse writhes” value ([4]; 200 mg/kg) was 64.0%.

In the case of CCCCCCC/C=C1\CCC(CN(C)C)C1=O.Cl (centres unmarked) [Compound 2, 2-Dimethylaminomethyl-5-(E)-octylidene cyclopentanone hydrochloride], the “average number of days of survival” value [5] is reported as 33 ± 8.2 days, the “increase of life span (ILS %) over the control” value [5] is reported as 112.0% and the “ratio of survival for more than 40 days” value [5] is reported as 3/9. For the same compound, the GI50 [6] was 5.13 µM, the IC100 [6] was 12.3 µM and the “Differential Cellular Sensitivity GI50, tumor cell line subpanels” value (“Differential Cellular Sensitivity GI50” below) [6] was “LEU;COL”. For the same compound, the “Differential Cellular Sensitivity LC50, tumor cell line subpanels” value (“Differential Cellular Sensitivity LC50” below) [6] was “COL;LNS;REN” and the “Differential Cellular Sensitivity TGI, tumor cell line subpanels” value (“Differential Cellular Sensitivity TGI” below) [6] was “COL;REN”.

Work on CC(C)=C1CCC(CN(C)C)C1=O.Cl (centres unmarked) [Compound 3, 2-Dimethylaminomethyl-5-(1-methylethylidene) cyclopentanone hydrochloride] yielded a GI50 [6] of 19.1 µM, an LC50 [6] of 67.6 µM and an IC100 [6] of 40.7 µM. For the same compound, the “Differential Cellular Sensitivity GI50” value [6] was “LEU”, the “Differential Cellular Sensitivity LC50” value [6] was “SCL” and the “Differential Cellular Sensitivity TGI” value [6] was “COL;LEU”.

In the case of CCOC(=O)COc1ccccc1/C=C1\CCC(CN(C)C)C1=O.Cl (centres unmarked) [Compound 4, 2-Dimethylaminomethyl-5-(E)-(2-ethoxycarbonylmethoxyl-benzylidene) cyclopentanone hydrochloride], the GI50 [6] is reported as 6.31 µM, the IC100 [6] is reported as 15.8 µM and the “Differential Cellular Sensitivity GI50” value [6] is reported as “LEU”. The “Differential Cellular Sensitivity LC50” value [6] was “CNS;LNS;MEL” and the “Differential Cellular Sensitivity TGI” value [6] was “LEU”.

For CC(/C=C1\CCC(CN(C)C)C1=O)c1cccc(Br)c1.Cl (centres unmarked) [Compound 5, 2-Dimethylaminomethyl-5-(E)-[2-(3-bromophenyl)propylidene] cyclopentanone hydrochloride], the GI50 [6] was 12.6 µM, the LC50 [6] was 63.1 µM and the IC100 [6] was 27.5 µM. For the same compound, the “Differential Cellular Sensitivity GI50” value [6] was “LEU”, the “Differential Cellular Sensitivity LC50” value [6] was “CNS;OVA” and the “Differential Cellular Sensitivity TGI” value [6] was “LEU”.

With CN(C)CC1CC/C(=C\c2ccccc2)C1=O.Cl (centres unmarked) [Compound 6, 2-Dimethylaminomethyl-5-(E)-benzylidene cyclopentanone hydrochloride] the “Inhibition of carrageenin induced rat paw edema” value [7, 8] was 77.4%.

With COc1ccccc1/C=C1\CCC(CN(C)C)C1=O.Cl (centres unmarked) [Compound 7, 2-Dimethylaminomethyl-5-(E)-[(2-methoxy)benzylidene] cyclopentanone hydrochloride] the GI50 [6] was 6.31 µM, the LC50 [6] was 39.8 µM and the IC100 [6] was 15.8 µM. The “Differential Cellular Sensitivity GI50” value [6] was “LEU”, the “Differential Cellular Sensitivity LC50” value [6] was “COL” and the “Differential Cellular Sensitivity TGI” value [6] was “COL”. For the same compound, the “Inhibition of carrageenin induced rat paw edema” value ([7]; 12.5 mg/kg sc, about 0.5 hours before carrageenin) was 44.2%, the “Inhibition of carrageenin induced rat paw edema” value [7, 9] was 70.3% and the “Inhibition of carrageenin induced rat paw edema” value [7, 8] was 95.8%.

With CN(C)CC1CC/C(=C\c2ccc(O)cc2)C1=O.Cl (centres unmarked) [Compound 8, 2-Dimethylaminomethyl-5-(E)-[(4-hydroxy)benzylidene] cyclopentanone hydrochloride] the GI50 [6] was 4.27 µM, the IC100 [6] was 10.7 µM and the “Differential Cellular Sensitivity GI50” value [6] was “COL;LEU”. For the same compound, the “Differential Cellular Sensitivity LC50” value [6] was “CNS;REN;SCL”, the “Differential Cellular Sensitivity TGI” value [6] was “LEU” and the “Inhibition of carrageenin induced rat paw edema” value [7, 8] was 95.9%.

With O=C1/C(=C/c2ccc(O)cc2)CCC1CNc1ccc(Cl)cc1 (centres unmarked) [Compound 9, 2-[(4-Chlorophenyl)aminomethyl]-5-(E)-[(4-hydroxy)benzylidene] cyclopentanone] the GI50 [6] was 3.16 µM, the LC50 [6] was 30.9 µM and the IC100 [6] was 10 µM. For the same compound, the “Differential Cellular Sensitivity GI50” value [6] was “COL;LEU;SCL”, the “Differential Cellular Sensitivity LC50” value [6] was “COL” and the “Differential Cellular Sensitivity TGI” value [6] was “LEU;SCL”.

In the case of COc1ccccc1/C=C1\CCC(CN2CCOCC2)C1=O.Cl (centres unmarked) [Compound 10, 2-Morpholinomethyl-5-(E)-[(2-methoxy)benzylidene]cyclopentanone hydrochloride], the GI50 [6] is reported as 7.94 µM, the LC50 [6] is reported as 52.5 µM and the IC100 [6] is reported as 19.5 µM. The “Differential Cellular Sensitivity GI50” value [6] was “LEU;COL”, the “Differential Cellular Sensitivity LC50” value [6] was “MEL;REN;OVA” and the “Differential Cellular Sensitivity TGI” value [6] was “LEU”.

COc1ccccc1/C=C1\CCC(Cc2ccccc2)(CN(C)C)C1=O.Cl (centres unmarked) [Compound 11, 2-Benzyl-2-dimethylaminomethyl-5-(E)-[(2-methoxy)benzylidene] cyclopentanone hydrochloride] gave a GI50 [6] of 2.19 µM, an LC50 [6] of 83.2 µM and an IC100 [6] of 25.1 µM. For the same compound, the “Differential Cellular Sensitivity GI50” value [6] was “LEU;COL”, the “Differential Cellular Sensitivity LC50” value [6] was “COL” and the “Differential Cellular Sensitivity TGI” value [6] was “LEU”. The “Inhibition of carrageenin induced rat paw edema” value [7, 10] was 52.2% and the “Inhibition of acetic acid induced mouse writhes” value ([4]; 96 mg/kg) was 41.7%.

With COc1ccc(/C=C2\CCC(Cc3ccccc3)(CN(C)C)C2=O)cc1.Cl (centres unmarked) [Compound 12, 2-Benzyl-2-dimethylaminomethyl-5-(E)-[(4-methoxy)benzylidene] cyclopentanone hydrochloride] the GI50 [6] was 35.5 µM, the IC100 [6] was 77.6 µM and the “Differential Cellular Sensitivity GI50” value [6] was “COL;MEL”. The “Differential Cellular Sensitivity LC50” value [6] was “SCL”, the “Differential Cellular Sensitivity TGI” value [6] was “LEU;SCL” and the “Inhibition of carrageenin induced rat paw edema” value [7, 10] was 57.3%. The “Inhibition of acetic acid induced mouse writhes” value ([4]; 48 mg/kg) was 45.6% and the “Inhibition of acetic acid induced mouse writhes” value ([4]; 96 mg/kg) was 86.6%.

Work on CN(C)CCC1(C2=CCCC2)CC/C(=C\c2ccc(Cl)cc2)C1=O (centres unmarked) [Compound 13, 2-(1-Cyclopenten-1-yl)-2-dimethylaminoethyl-5-(E)-[(4-chloro)benzylidene]cyclopentanone hydrochloride] yielded a GI50 [6] of 7.08 µM, an LC50 [6] of 44.7 µM and an IC100 [6] of 19.1 µM. For the same compound, the “Differential Cellular Sensitivity GI50” value [6] was “MEL”, the “Differential Cellular Sensitivity LC50” value [6] was “MEL” and the “Differential Cellular Sensitivity TGI” value [6] was “MEL”.

For C=C1C(=O)O[C@@H]2C[C@@H](C)[C@@H]3C=CC(=O)[C@@]3(C)[C@@H](O)[C@H]12 [Helenalin], the “anti-inflammatory activity (in words)” value [2] is given as “potent” and the “anticancer activity (in words)” value [3] is given as “potent”.

With CC(C)Cc1ccc(C(C)C(=O)O)cc1 (centres unmarked) [Ibuprofen, reference compound] the “Inhibition of carrageenin induced rat paw edema” value [7, 9] was 72.9% and the “Inhibition of carrageenin induced rat paw edema” value ([7]; 52.0 mg/kg po, about 1 hour before carrageenin) was 54.9%.

In the case of C[C@@H]1C[C@@H]2OC(=O)[C@]3(C)[C@H]2[C@@H](OC3(C)O)[C@]2(C)C(=O)C=C[C@@H]12 (some centres unmarked) [Tenulin], the “anti-inflammatory activity (in words)” value [2] is given as “potent” and the “anticancer activity (in words)” value [3] is given as “potent”.
